Assay results as given in article PMC12362796, “Bilirubin Targeting WNK1 to Alleviate NLRP3‐Mediated Neuroinflammation” (Advanced Science, 2025).

Key:
hWNK4 = biological target: T1, hWNK4 (Homo sapiens, UniProt Q96J92); assay: MST, WNK kinase family member WNK4; type: binding
T1 construct: expressed in transfected cells; host or cells: HEK293T
Method: (§1) To validate the direct binding of bilirubin to WNK1, we performed a Microscale Thermophoresis (MST) analysis, which assesses the binding capacity of a compound by measuring the movement of proteins over a microscopic temperature gradient.^[ [26], [27] ^] We overexpressed full‐length WNK1 fused with Green Fluorescent Protein (GFP) in HEK‐293 cells, incubated the lysates with bilirubin at varying dilutions, and subjected them to precise MST measurements in capillaries. […] Furthermore, biliverdin, a structurally similar intermediate product generated before bilirubin formation, was used as a control.
(§2) All WNK1 clones were derived from the original untagged hWNK1 cDNA (NM_018979), which was modified and subcloned into the pcDNA3.1, referred to as “full‐length WNK1” throughout this study. Truncated constructs, including 1–190aa, 191–491aa, 1–491aa, and 491–2382aa fragments, were generated by PCR using the full‐length template and subsequently ligated into linearized pcDNA3.1 vectors. WNK2 was obtained from Addgene Plasmid #24569, and WNK3 was obtained from Addgene Plasmid #81723. Both were subjected to base modifications and cloned into pcDNA3.1. The WNK4 clone was derived from hWNK4 cDNA (NM_032387.5), modified, and subcloned into the pCMV3‐C‐GFPSpark vector.
(§3) In HEK293T cells, proteins tagged with green fluorescent protein (GFP) were expressed. […]

hWNK1(181–507 S382A) = biological target: T2, hWNK1(181–507 S382A) (Homo sapiens, UniProt Q9H4A3, S382A); assay: ADP-Glo kinase assay, kinase-dead WNK1 mutant control; type: biochemical; details: negative control
T2 construct: The kinase‐dead WNK1 mutant hWNK1(181–507 S382A) served as a negative control
T2 sequence (Q9H4A3 181-507 S382A): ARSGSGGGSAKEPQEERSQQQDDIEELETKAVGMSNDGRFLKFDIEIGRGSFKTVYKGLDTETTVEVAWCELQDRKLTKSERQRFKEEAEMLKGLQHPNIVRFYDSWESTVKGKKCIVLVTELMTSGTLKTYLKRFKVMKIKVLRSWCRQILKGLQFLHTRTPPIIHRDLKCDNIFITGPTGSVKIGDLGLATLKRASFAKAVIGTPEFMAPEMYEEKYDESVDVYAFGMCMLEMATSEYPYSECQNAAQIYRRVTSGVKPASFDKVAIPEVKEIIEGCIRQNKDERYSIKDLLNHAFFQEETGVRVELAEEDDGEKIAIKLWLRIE
From the text: Given the binding of bilirubin to the kinase domain of WNK1, we aimed to explore its effect on WNK1 with a particular focus on its kinase activity. To evaluate WNK1 kinase activity, we utilized an in vitro kinase enzyme assay system to quantify ADP production by the amino acid fragment 181–507 of human WNK1 (hWNK1) over a range of bilirubin concentrations. The kinase‐dead WNK1 mutant hWNK1(181–507 S382A) served as a negative control (Figure S10, Supporting Information).^[ [30] ^]
WNK1 kinase activity was measured using the ADP‐Glo Kinase Assay (Promega, Cat. V9101) following the manufacturer's instructions. Purified protein was incubated with bilirubin across a range of 12 serially diluted concentrations, beginning at a maximum concentration of 20 µM. After the incubation period, luminescence was recorded using a microplate reader (Synergy H1M, BioTek)

[1] = biological target: T3, point mutations of WNK1 (1–491) (Homo sapiens, UniProt Q9H4A3, T301A); assay: MST, EGFP-tagged point mutations of WNK1 (1–491); type: binding; details: WNK1-N T301A
T3 construct: EGFP‐tagged point mutations of WNK1 (1–491) (15 min) in lysates; expressed in transfected cells; host or cells: HEK293T
T3 sequence (Q9H4A3 1-491 T301A): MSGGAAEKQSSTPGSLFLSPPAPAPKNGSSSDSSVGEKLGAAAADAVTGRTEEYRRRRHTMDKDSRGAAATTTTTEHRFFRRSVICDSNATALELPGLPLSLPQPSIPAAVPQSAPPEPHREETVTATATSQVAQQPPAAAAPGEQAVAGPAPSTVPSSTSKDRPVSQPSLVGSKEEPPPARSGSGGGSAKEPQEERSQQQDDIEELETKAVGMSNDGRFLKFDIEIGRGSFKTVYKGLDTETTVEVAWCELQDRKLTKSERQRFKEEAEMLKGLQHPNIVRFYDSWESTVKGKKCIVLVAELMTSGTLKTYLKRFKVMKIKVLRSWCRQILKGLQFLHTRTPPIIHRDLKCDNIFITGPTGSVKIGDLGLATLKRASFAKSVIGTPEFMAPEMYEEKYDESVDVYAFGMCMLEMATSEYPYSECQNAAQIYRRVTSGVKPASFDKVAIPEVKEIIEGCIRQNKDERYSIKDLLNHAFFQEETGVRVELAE
From the text: (§4) Molecular docking identified several crucial amino acid residues within binding site 1 of the kinase domain for the binding of WNK1 and bilirubin. These residues included Thr301 (T301), Met304 (M304), Lys351 (K351), and Phe356 (F356) (Figure 3C). To investigate this further, we constructed WNK1‐N mutants by replacing these residues with alanine (A). […] This finding highlights the critical role of these residues in bilirubin binding.
(§5) In HEK293T cells, proteins tagged with green fluorescent protein (GFP) were expressed. The cells were lysed using the M‐PER Mammalian Protein Extraction Reagent (cat. no. 78505, Thermo Scientific) supplemented with protease inhibitors. Lysates were centrifuged at 12000 × g for 15 min at 4 °C, and the supernatant containing proteins was diluted 10‐fold with 1x PBST. Protein fluorescence intensity and solubility were assessed using capillary scanning at 60% LED power.
(§6) For the binding assay, the proteins were mixed with ligands and incubated for 15 min at room temperature before being loaded into Monolith NT.115 Capillaries or NT.115 Premium Capillaries (NanoTemper Technologies, MO‐K022 and MO‐K025). MST measurements were performed on a Monolith NT.115 instrument (NanoTemper Technologies) at 25 °C. Instrument parameters included no more than 80% excitation power and a medium MST power. Data analysis was conducted using the MO. Affinity Analysis software (NanoTemper Technologies).

[2] = biological target: T4, point mutations of WNK1 (1–491) (Homo sapiens, UniProt Q9H4A3, M304A); assay: MST, EGFP-tagged point mutations of WNK1 (1–491); type: binding; details: WNK1-N M304A
T4 construct: EGFP‐tagged point mutations of WNK1 (1–491) (15 min) in lysates; expressed in transfected cells; host or cells: HEK293T
T4 sequence (Q9H4A3 1-491 M304A): as the sequence (Q9H4A3 1-491 T301A) above, with A301T, M304A counted along it
From the text: as §4, §5, §6

[3] = biological target: T5, point mutations of WNK1 (1–491) (Homo sapiens, UniProt Q9H4A3, K351A); assay: MST, EGFP-tagged point mutations of WNK1 (1–491); type: binding; details: WNK1-N K351A
T5 construct: EGFP‐tagged point mutations of WNK1 (1–491) (15 min) in lysates; expressed in transfected cells; host or cells: HEK293T
T5 sequence (Q9H4A3 1-491 K351A): as the sequence (Q9H4A3 1-491 T301A) above, with A301T, K351A counted along it
From the text: as §4, §5, §6

[4] = biological target: T6, point mutations of WNK1 (1–491) (Homo sapiens, UniProt Q9H4A3, F356A); assay: MST, EGFP-tagged point mutations of WNK1 (1–491); type: binding; details: WNK1-N F356A
T6 construct: EGFP‐tagged point mutations of WNK1 (1–491) (15 min) in lysates; expressed in transfected cells; host or cells: HEK293T
T6 sequence (Q9H4A3 1-491 F356A): as the sequence (Q9H4A3 1-491 T301A) above, with A301T, F356A counted along it
From the text: as §4, §5, §6

hWNK3 = biological target: T7, hWNK3 (Homo sapiens, UniProt Q9BYP7); assay: MST, WNK kinase family member WNK3; type: binding
T7 construct: host or cells: HEK293T
T7 sequence (Q9BYP7 whole entry): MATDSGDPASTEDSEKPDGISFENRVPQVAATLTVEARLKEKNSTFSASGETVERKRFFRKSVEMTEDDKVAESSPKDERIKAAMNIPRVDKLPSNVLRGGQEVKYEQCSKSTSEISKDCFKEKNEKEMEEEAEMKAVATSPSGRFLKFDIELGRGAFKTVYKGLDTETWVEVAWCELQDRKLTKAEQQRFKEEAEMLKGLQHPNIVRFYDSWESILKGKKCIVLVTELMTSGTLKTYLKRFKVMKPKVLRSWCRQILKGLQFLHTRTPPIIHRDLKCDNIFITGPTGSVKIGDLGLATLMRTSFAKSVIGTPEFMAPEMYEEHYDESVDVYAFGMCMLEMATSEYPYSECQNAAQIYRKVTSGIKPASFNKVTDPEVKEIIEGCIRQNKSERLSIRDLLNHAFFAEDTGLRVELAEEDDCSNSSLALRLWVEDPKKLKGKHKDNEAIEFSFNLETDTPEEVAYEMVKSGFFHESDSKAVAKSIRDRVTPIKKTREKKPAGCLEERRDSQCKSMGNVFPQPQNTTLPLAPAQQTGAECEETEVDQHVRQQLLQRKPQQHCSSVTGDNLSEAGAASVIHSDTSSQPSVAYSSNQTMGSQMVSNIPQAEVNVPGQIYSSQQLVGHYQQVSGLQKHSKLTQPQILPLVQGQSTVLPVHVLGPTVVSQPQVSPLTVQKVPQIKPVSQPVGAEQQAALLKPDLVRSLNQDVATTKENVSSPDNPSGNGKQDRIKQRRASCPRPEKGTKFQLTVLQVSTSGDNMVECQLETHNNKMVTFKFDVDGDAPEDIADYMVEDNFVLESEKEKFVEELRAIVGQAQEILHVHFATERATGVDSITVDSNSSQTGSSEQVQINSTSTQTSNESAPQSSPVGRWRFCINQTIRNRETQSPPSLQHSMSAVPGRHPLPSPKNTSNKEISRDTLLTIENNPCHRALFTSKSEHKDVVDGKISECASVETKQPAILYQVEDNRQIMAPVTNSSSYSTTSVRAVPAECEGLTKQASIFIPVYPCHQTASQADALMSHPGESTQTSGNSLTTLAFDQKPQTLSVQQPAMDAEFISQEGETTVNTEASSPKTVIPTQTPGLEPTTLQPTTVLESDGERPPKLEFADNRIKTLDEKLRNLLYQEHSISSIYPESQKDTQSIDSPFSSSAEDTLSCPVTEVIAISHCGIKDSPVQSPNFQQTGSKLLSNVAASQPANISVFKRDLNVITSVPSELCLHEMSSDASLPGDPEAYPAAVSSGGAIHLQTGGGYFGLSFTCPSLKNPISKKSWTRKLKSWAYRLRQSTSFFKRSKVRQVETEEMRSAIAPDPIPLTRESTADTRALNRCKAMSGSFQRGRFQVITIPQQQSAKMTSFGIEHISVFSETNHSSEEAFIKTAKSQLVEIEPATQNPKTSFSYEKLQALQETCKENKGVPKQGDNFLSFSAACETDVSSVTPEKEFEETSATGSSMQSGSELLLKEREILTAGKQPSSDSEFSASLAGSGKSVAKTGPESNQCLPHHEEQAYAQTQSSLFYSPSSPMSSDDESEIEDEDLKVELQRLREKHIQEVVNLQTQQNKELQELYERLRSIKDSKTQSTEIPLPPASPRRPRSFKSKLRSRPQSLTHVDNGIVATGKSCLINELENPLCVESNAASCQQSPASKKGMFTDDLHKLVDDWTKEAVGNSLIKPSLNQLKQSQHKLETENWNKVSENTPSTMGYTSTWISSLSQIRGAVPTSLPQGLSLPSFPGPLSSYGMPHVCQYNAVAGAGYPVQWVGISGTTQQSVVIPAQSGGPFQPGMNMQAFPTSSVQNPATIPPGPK
Method: as §1, §2, §3

[5] = test system: cochlear nuclei and hippocampus neurons; assay: Neuronal excitability in cochlear nuclei and hippocampus neurons; type: cell-based
From the text: To ascertain whether bilirubin regulates chloride ions through WNK1, we generated Wnk1 gene knockout primary cultured neurons. We achieved neuron‐specific deletion of Wnk1 in hippocampal neurons by transducing primary neurons isolated from Wnk1^flox/flox embryonic mice with a lentivirus expressing hSyn‐Cre‐EGFP.^[ [33], [34] ^] […] Intracellular chloride concentration is crucial for modulating inhibitory synaptic transmission and, consequently, neuronal excitability.

WNK1 (1–491) = biological target: T8, WNK1 (1–491) (Homo sapiens, UniProt Q9H4A3); assay: MST, EGFP-tagged WNK1 truncation 1–491; type: binding; details: WNK1 1–491, 15 min, HEK293T lysates
T8 construct: different lengths of WNK1 truncations (1–491, 1–190, 191–491, 491–2382); expressed in transfected cells; host or cells: HEK293T
T8 sequence (Q9H4A3 1-491): as the sequence (Q9H4A3 1-491 T301A) above, with A301T counted along it
From the text: To further validate these findings, we constructed GFP‐tagged fusion proteins with different lengths of WNK1 truncations (1–491, 1–190, 191–491, 491–2382) based on the WNK1 domains (Figure 3E) and analyzed their binding capacity with bilirubin using MST analysis.^[ [29] ^]
as §2
as §5, with “Protein fluorescence intensity and solubility were assessed using capillary scanning at 60% LED power.” left out

T1 sequence (Q96J92 whole entry): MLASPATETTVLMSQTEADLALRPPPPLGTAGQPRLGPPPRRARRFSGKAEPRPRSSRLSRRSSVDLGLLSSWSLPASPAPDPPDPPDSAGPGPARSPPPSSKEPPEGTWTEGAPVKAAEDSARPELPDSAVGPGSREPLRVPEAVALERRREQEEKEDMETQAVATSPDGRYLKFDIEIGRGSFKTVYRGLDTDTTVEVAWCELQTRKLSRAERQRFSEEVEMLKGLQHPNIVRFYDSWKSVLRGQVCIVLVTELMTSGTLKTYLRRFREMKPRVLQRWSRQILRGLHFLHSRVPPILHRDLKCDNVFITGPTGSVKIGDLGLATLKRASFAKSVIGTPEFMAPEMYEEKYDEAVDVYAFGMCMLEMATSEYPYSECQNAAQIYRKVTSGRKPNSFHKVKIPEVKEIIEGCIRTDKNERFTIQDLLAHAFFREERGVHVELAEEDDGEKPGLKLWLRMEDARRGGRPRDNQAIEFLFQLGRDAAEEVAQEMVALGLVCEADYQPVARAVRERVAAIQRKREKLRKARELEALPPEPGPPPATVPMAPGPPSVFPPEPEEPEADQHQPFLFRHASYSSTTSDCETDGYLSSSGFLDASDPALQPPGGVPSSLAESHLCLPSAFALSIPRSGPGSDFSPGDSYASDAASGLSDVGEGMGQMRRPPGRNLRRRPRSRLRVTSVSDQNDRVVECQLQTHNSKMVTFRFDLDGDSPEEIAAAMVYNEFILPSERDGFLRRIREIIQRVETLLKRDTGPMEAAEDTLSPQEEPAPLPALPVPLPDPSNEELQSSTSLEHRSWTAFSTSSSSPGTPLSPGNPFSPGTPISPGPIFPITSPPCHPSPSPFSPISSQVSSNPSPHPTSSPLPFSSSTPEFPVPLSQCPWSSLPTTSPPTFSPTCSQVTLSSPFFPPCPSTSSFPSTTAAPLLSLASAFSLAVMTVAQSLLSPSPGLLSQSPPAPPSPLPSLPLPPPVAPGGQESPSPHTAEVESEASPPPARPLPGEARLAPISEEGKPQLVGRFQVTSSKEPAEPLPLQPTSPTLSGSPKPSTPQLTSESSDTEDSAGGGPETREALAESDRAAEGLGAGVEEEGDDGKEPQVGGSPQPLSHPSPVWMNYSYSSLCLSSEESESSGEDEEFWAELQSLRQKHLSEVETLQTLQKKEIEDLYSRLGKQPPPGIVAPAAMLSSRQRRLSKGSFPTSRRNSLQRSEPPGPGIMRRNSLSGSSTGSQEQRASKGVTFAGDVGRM

Question: For C=CC1=C(C)/C(=C/c2[nH]c(Cc3[nH]c(/C=C4\NC(=O)C(C)=C4C=C)c(C)c3CCC(=O)O)c(CCC(=O)O)c2C)NC1=O [bilirubin, Bilirubin], which Kd (hWNK4) is on record?
Answer: 280 nM

Question: What about the “effect on kinase activity of kinase-dead mutant” value (hWNK1(181–507 S382A)) of the same compound?
Answer: no effect

Question: And the “binding to T301A mutant” value [1]?
Answer: unable to bind

Question: And the “binding to M304A mutant” value [2]?
Answer: reduced binding affinity

Question: And the “binding to K351A mutant” value [3]?
Answer: reduced binding affinity

Question: And the “binding to F356A mutant” value [4]?
Answer: reduced binding affinity

Question: And the Kd (hWNK3)?
Answer: 760 nM

Question: And the neural excitability [5]?
Answer: induces neural hyperexcitability

Question: And the Kd (WNK1 (1–491))?
Answer: 315 nM
